Experiments:
human CB1 receptor [1] = target: T1, human CB1 receptor (Homo sapiens, UniProt P21554); assay: bioSensAll β-arrestin plasma membrane (PM) translocation BRET biosensor (+GRK2) assay in transfected HEK293 cells, inhibition of CP-55,940 response; assay type: cell-based; settings: HEK293 cells transfected with hCB1 and β-arrestin PM translocation biosensor (+GRK2), test compound then EC75 of CP-55,940 (100 nM), overnight incubation, read-out: CB1 wt βarr2 EC50
T1 construct: expressed in transfected cells; host or cells: HEK293
T1 sequence (P21554 whole entry): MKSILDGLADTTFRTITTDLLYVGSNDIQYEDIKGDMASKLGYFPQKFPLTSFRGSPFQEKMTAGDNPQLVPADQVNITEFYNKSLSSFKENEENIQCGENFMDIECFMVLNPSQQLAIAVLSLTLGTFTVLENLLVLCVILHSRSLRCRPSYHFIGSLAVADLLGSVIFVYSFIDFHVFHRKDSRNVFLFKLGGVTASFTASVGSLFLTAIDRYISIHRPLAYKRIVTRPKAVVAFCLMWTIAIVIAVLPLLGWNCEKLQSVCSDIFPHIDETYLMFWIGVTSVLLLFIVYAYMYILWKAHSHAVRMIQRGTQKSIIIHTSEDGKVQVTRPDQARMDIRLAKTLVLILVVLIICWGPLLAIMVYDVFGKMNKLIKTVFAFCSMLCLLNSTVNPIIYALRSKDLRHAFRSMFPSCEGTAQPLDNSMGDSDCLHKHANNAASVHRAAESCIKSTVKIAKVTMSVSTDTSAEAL
Description: (§1) Using polyethylenimine (PEI) transfection agent, HEK293 cells were transfected in suspension with the human CB1 or CB1 b receptor and one of the following bioSensAll® assays: GAPL-Gi2, or β-arrestin plasma membrane (PM) translocation biosensor (+GRK2). Cells were directly seeded in 96-well plates immediately following transfection.
(§2) Cells were incubated with coelenterazine (luciferase substrate) and different test compounds prior to the measurement of BRET signals.
(§3) Used in this project are i) Ga plasma membrane (GAPL) biosensors and the ii) β-arrestin plasma membrane translocation biosensor. • i) GAPL sensors are used to monitor the activation of heterotrimeric G proteins at the plasma membrane upon receptor stimulation. Specifically, these multimolecular BRET sensors detect the plasma membrane recruitment of proteins that interact with active Ga subunits in a G protein family-selective manner. G protein activation following receptor stimulation generally leads to an increase in the BRET signal. • ii) The multimolecular β-arrestin membrane recruitment biosensors allow for real-time spatio-temporal monitoring of β-arrestin 1 and β-arrestin 2 following GPCR activation. Specifically, these β-arrestin sensors were designed to detect the recruitment of proteins to the plasma membrane β-arrestin PM) with localization to compartment resulting in an increased BRET signal. c) Cell Culture Conditions HEK293 cells were maintained in Dulbecco's Modified Eagle Medium (DMEM) (Wisent; cat #319-030-CL: without sodium pyruvate, with 4.5 g/L glucose, without L-glutamine) supplemented with 1% penicillin-streptomycin (Wisent; cat #450-201-EL) and 2 or 10% fetal bovine serum (Wisent cat #090150).
(§4) HEK293 cells were co-transfected with hCB1 or hCB1b and one of the above-listed bioSensAll® assays. For each transfection condition: • the total amount of transfected DNA was kept constant at 1 μg per mL of cell culture to be transfected; whenever necessary, salmon sperm DNA (Invitrogen, cat #15632011) was used as ‘carrier’ DNA to supplement plasmid DNA (i.e., biosensor and receptor); • the PEI (polyethylenimine 25 kDa linear, PolyScience, cat #23966) to DNA ratio (ug:ug) was fixed at 3:1. Transfections were Carried Out as Follows: • DNA and PEI were first diluted separately in 150 mM NaCl. The volume of the diluent in each tube corresponds to 5% of the cell culture volume to be transfected. • Once DNA and PEI were diluted, the PEI-containing solution was added to the DNA solution and the DNA/PEI mixture immediately vortexed for 5 seconds. • The DNA/PEI mixture was incubated for at least 20 minutes at room temperature to allow for the formation of DNA/PEI complexes. • During the incubation, HEK293 cells were detached, counted and re-suspended in culture medium (composition specified above). • At the end of the incubation period, the DNA/PEI mixture was added to the cells. • Cells were finally distributed in 96-well plates (White Opaque 96-well/Microplates, Greiner, cat #655083 or CulturPlate-96, White Opaque 96-well Microplate, PerkinElmer, cat #6005688) at a density of 30 000 cells per well.
(§5) • Using 450-Select TS Biotek plate washer, culture medium was aspirated and replaced with 100 μl of Hank's Balanced Salt Solution buffer (HBSS) (Wisent, cat #319-067CL: without red phenol; with sodium bicarbonate, with calcium and magnesium, with HEPES) per well. This process was performed a total of two times (i.e., 2 washes). • After the washing step, the HP D300 digital dispenser (Tecan) was used to inject increasing doses (12) of test compounds (ranging from 0-600 nM) to wells. […]

human CB1 receptor [2] = target: T1, human CB1 receptor; assay: bioSensAll GAPL-Gi2 BRET biosensor assay in transfected HEK293 cells, inhibition of CP-55,940 response; assay type: cell-based; settings: HEK293 cells transfected with hCB1 and GAPL-Gi2 biosensor, test compound then EC75 of CP-55,940 (0.1 nM), overnight incubation, read-out: CB1 wt Gi2 EC50
Description: as §1, §2, §3, §4, §5

| Compound | EC50 (human CB1 receptor [1]) [nM] | EC50 (human CB1 receptor [2]) [nM] |
| --- | --- | --- |
| CC(=O)NC(N)=NC(=NS(=O)(=O)c1ccc(Cl)cc1)N1CCC(c2ccccc2)C(c2ccc(Cl)cc2)=N1 (single isomer, unassigned) [Compound 1 Isomer 1, N-[(E)-N′-[(Z)-C-[6-(4-chlorophenyl)-5-phenyl-4,5-dihydro-3H-pyridazin-2-yl]-N-(4-chlorophenyl)sulfonylcarbonimidoyl]carbamimidoyl]acetamide] | > 30000 | 430 |
| CC(=O)N/C(N)=N/C(=N/S(=O)(=O)N1CCCCC1)N1CCC(c2ccccc2)C(c2ccc(Cl)cc2)=N1 (single isomer, unassigned) [Compound 2 Isomer 1, N-[(E)-N′-[(Z)-C-[6-(4-chlorophenyl)-5-phenyl-4,5-dihydro-3H-pyridazin-2-yl]-N-(1-piperidylsulfonyl)carbonimidoyl]carbamimidoyl]acetamide] | 23600 | 300 |
| CC(=O)N/C(N)=N/C(=N/S(=O)(=O)N1CCC(C(F)(F)F)CC1)N1CCC(c2ccccc2)C(c2ccc(Cl)cc2)=N1 (single isomer, unassigned) [Compound 3 Isomer 1, N-[(E)-N′-[(Z)-C-[6-(4-chlorophenyl)-5-phenyl-4,5-dihydro-3H-pyridazin-2-yl]-N-[[4-(trifluoromethyl)-1-piperidyl]sulfonyl]carbonimidoyl]carbamimidoyl]acetamide] | 14100 | 190 |
| CC(=O)N/C(N)=N/C(=N/S(=O)(=O)N1CCC(F)(F)CC1)N1CCC(c2ccccc2)C(c2ccc(Cl)cc2)=N1 (single isomer, unassigned) [Compound 4 Isomer 1, N-[(E)-N′-[(Z)-C-[6-(4-chlorophenyl)-5-phenyl-4,5-dihydro-3H-pyridazin-2-yl]-N-[(4,4-difluoro-1-piperidyl)sulfonyl]carbonimidoyl]carbamimidoyl]acetamide] | > 30000 | > 30000 |
| CC(=O)N/C(N)=N/C(=N/S(=O)(=O)N1CCCC(F)(F)C1)N1CCC(c2ccccc2)C(c2ccc(Cl)cc2)=N1 (single isomer, unassigned) [Compound 5 Isomer 1, N-[(E)-N′-[(Z)-C-[6-(4-chlorophenyl)-5-phenyl-4,5-dihydro-3H-pyridazin-2-yl]-N-[(3,3-difluoro-1-piperidyl)sulfonyl]carbonimidoyl]carbamimidoyl]acetamide] | 400 | 150 |
| CC(=O)NC(N)=NC(=NS(=O)(=O)c1cc(F)cc(F)c1)N1CCC(c2ccccc2)C(c2ccc(Cl)cc2)=N1 (single isomer, unassigned) [Compound 6 Isomer 1, N-[(E)-N′-[(Z)-C-[6-(4-chlorophenyl)-5-phenyl-4,5-dihydro-3H-pyridazin-2-yl]-N-(3,5-difluorophenyl)sulfonylcarbonimidoyl]carbamimidoyl]acetamide] | 380 | 39 |
| CC(=O)N/C(N)=N\C(=N\S(=O)(=O)c1ccc(C(F)(F)F)cc1)N1CCC(c2ccccc2)C(c2ccc(Cl)cc2)=N1 (single isomer, unassigned) [Compound 7 Isomer 1, N-[(E)-N′-[(Z)-C-[6-(4-chlorophenyl)-5-phenyl-4,5-dihydro-3H-pyridazin-2-yl]-N-[4-(trifluoromethyl)phenyl]sulfonyl-carbonimidoyl]carbamimidoyl]acetamide] | 580 | 200 |
| CC(=O)NC(=N)/N=C(/NS(=O)(=O)c1ccc(C(F)(F)F)cn1)N1CCC(c2ccccc2)C(c2ccc(Cl)cc2)=N1 (single isomer, unassigned) [Compound 8 Isomer 1, N-[(NE)-N-[[6-(4-chlorophenyl)-5-phenyl-4,5-dihydro-3H-pyridazin-2-yl]-[[5-(trifluoromethyl)-2-pyridyl]sulfonylamino]methylene]carbamimidoyl]acetamide] | > 30000 | > 30000 |

Stronger by EC50 (human CB1 receptor [1]), values ahead:

| EC50 (human CB1 receptor [1]) [nM] | EC50 (human CB1 receptor [2]) [nM] | Compound |
| --- | --- | --- |
| 8.5 | 1.9 | CC(=O)NC(=N)/N=C(/NS(=O)(=O)c1ccc(C(F)(F)F)cn1)N1CCC(c2ccccc2)C(c2ccc(Cl)cc2)=N1 (single isomer, unassigned) [Compound 8 Isomer 2, N-[(NE)-N-[[6-(4-chlorophenyl)-5-phenyl-4,5-dihydro-3H-pyridazin-2-yl]-[[5-(trifluoromethyl)-2-pyridyl]sulfonylamino]methylene]carbamimidoyl]acetamide] |
| 3.3 | 1.2 | CC(=O)NC(N)=NC(=NS(=O)(=O)c1ccc(Cl)cc1)N1CCC(c2ccccc2)C(c2ccc(Cl)cc2)=N1 (single isomer, unassigned) [Compound 1 Isomer 2, N-[(E)-N′-[(Z)-C-[6-(4-chlorophenyl)-5-phenyl-4,5-dihydro-3H-pyridazin-2-yl]-N-(4-chlorophenyl)sulfonylcarbonimidoyl]carbamimidoyl]acetamide] |
| 2.6 | 0.68 | CC(=O)NC(N)=NC(=NS(=O)(=O)c1cc(F)cc(F)c1)N1CCC(c2ccccc2)C(c2ccc(Cl)cc2)=N1 (single isomer, unassigned) [Compound 6 Isomer 2, N-[(E)-N′-[(Z)-C-[6-(4-chlorophenyl)-5-phenyl-4,5-dihydro-3H-pyridazin-2-yl]-N-(3,5-difluorophenyl)sulfonylcarbonimidoyl]carbamimidoyl]acetamide] |
| 2.1 | 0.42 | CC(=O)N/C(N)=N\C(=N\S(=O)(=O)c1ccc(C(F)(F)F)cc1)N1CCC(c2ccccc2)C(c2ccc(Cl)cc2)=N1 (single isomer, unassigned) [Compound 7 Isomer 2, N-[(E)-N′-[(Z)-C-[6-(4-chlorophenyl)-5-phenyl-4,5-dihydro-3H-pyridazin-2-yl]-N-[4-(trifluoromethyl)phenyl]sulfonyl-carbonimidoyl]carbamimidoyl]acetamide] |
| 1.5 | 0.65 | CC(=O)N/C(N)=N/C(=N/S(=O)(=O)N1CCCCC1)N1CCC(c2ccccc2)C(c2ccc(Cl)cc2)=N1 (single isomer, unassigned) [Compound 2 Isomer 2, N-[(E)-N′-[(Z)-C-[6-(4-chlorophenyl)-5-phenyl-4,5-dihydro-3H-pyridazin-2-yl]-N-(1-piperidylsulfonyl)carbonimidoyl]carbamimidoyl]acetamide] |
| 1.4 | 0.67 | CC(=O)N/C(N)=N/C(=N/S(=O)(=O)N1CCC(F)(F)CC1)N1CCC(c2ccccc2)C(c2ccc(Cl)cc2)=N1 (single isomer, unassigned) [Compound 4 Isomer 2, N-[(E)-N′-[(Z)-C-[6-(4-chlorophenyl)-5-phenyl-4,5-dihydro-3H-pyridazin-2-yl]-N-[(4,4-difluoro-1-piperidyl)sulfonyl]carbonimidoyl]carbamimidoyl]acetamide] |
| 1.3 | 0.64 | CC(=O)N/C(N)=N/C(=N/S(=O)(=O)N1CCC(C(F)(F)F)CC1)N1CCC(c2ccccc2)C(c2ccc(Cl)cc2)=N1 (single isomer, unassigned) [Compound 3 Isomer 2, N-[(E)-N′-[(Z)-C-[6-(4-chlorophenyl)-5-phenyl-4,5-dihydro-3H-pyridazin-2-yl]-N-[[4-(trifluoromethyl)-1-piperidyl]sulfonyl]carbonimidoyl]carbamimidoyl]acetamide] |
| 0.72 | 0.43 | CC(=O)N/C(N)=N/C(=N/S(=O)(=O)N1CCCC(F)(F)C1)N1CCC(c2ccccc2)C(c2ccc(Cl)cc2)=N1 (single isomer, unassigned) [Compound 5 Isomer 2, N-[(E)-N′-[(Z)-C-[6-(4-chlorophenyl)-5-phenyl-4,5-dihydro-3H-pyridazin-2-yl]-N-[(3,3-difluoro-1-piperidyl)sulfonyl]carbonimidoyl]carbamimidoyl]acetamide] |

— US20250042861A1, “TETRAHYDROPYRIDAZINES, COMPOSITIONS COMPRISING THEM AND USES THEREOF” (Novo Nordisk A/S, priority 2021, published 2025)
